{"source": "patent US11266715B2", "about": "“C3A receptor agonists for use against ischemic brain injury, stroke, traumatic brain injury, spinal cord injury and neurodegenerative disorders” (priority 2016, dated 2022)", "key": {"[1]": {"tested_on": "synapsin I+ puncta", "assay": "Synapsin I immunostaining of cortex 21 days after stroke", "format": "in vivo, mouse", "conditions": "for larger size of synapsin I+ puncta vs PBS-treated mice: ipsilesional motor cortex", "method": "For immunofluorescent evaluation, sections were deparaffinized, heated three times for 5 min in a microwave oven in 0.01 M citric buffer (pH 6.0), and blocked in PBS containing 0.05% Tween-20 (Sigma) and 1% in Bovine serum albumin (BSA, Sigma) for GAP-43 and synapsin I staining, 3% normal goat serum for VGLUT1 staining or 4% normal donkey serum for GAP-43 double stainings. Goat anti-synapsin la/b antibody (1:150; Santa Cruz, sc-7379) was followed by biotin-conjugated donkey anti-goat immunoglobulin (Ig) secondary antibody (1:200; Jackson Research Lab, 705-065-147) and Cy3-conjugated streptavidin (1:100; Sigma). Guinea pig anti-VGLUT1 (1:500; Millipore, AB5905) was followed by Alexa Fluor 488 goat anti-guinea pig Ig (1:500; Molecular Probes, A11073). For single staining, mouse anti-GAP-43 antibody (1:1000; Millipore, MAB347), was followed by biotinylated rabbit anti-mouse Ig secondary antibody (1:200; Dako, E0354) and Cy3-conjugated streptavidin (1:100; Sigma). […]\nHighest signal intensity single plane images of immunostained sections were obtained by laser scanning confocal microscope (LSM TCS SP2, Leica Microsystems, ×63/NA 1.3 objective for synapsin I and GAP-43; and LSM 700, Carl Zeiss for VGLUT1 ×40/NA 1.3) at 1024×1024 pixels resolution. […] Three standard sections per animal in 160 μm intervals were analysed. […]\nSingle-stained images were analysed using MetaMorph® software (Molecular Devices, ver. 2.8.5) to obtain number, average size and intensity of positive punctuate structures per image. […] An experimenter blinded to experimental group performed all image acquisitions and quantifications."}, "[2]": {"tested_on": "WT mice subjected to photothrombotic stroke in the motor cortex", "assay": "Grid walking task after photothrombotic stroke", "format": "in vivo, mouse", "method": "Cortical photothrombosis was induced using the Rose Bengal method (Lee et al., 2007; Watson et al., 1985) with some modifications. Anesthesia was induced with isoflurane (Forene®, Abbott) in air and oxygen (1:1) initially at 5% and reduced to 2.5% during the surgical procedure. Body temperature was monitored by a rectal probe and maintained at 37° C. using a homeothermic control unit (Harvard Apparatus). Anesthetized mice were placed in a stereotaxic frame, the skull was exposed through a midline scalp incision and Rose Bengal (200 μl, 10 mg/ml solution in sterile saline, Sigma) was injected intraperitoneally. After 5 min, the skull and underlying brain tissue were illuminated for 12 min by a 2 mm diameter cold laser beam (50 mW, 561 nm; Cobolt AB) positioned at AP +0.5 mm and ML −2.7 mm relative to Bregma, targeting the border between left primary somatosensory and motor cortex (Porritt et al., 2012). For intervention experiments targeting motor cortex, stroke was induced as above with the following modifications: Transcranial illumination lasting 15 min was delivered using cold light source (LQ1600, Fiberoptic-Heim AG) equipped with 2 mm wide fiber optic probe and directed to AP +0 and ML −1.5 relative to Bregma. After illumination, the scalp was sutured and mice were placed in a warm cage for 45 min to recover from anesthesia prior to being returned to the home cage. Mice were provided with moist mashed food placed on the floor of the home cage and their weight was monitored daily for 7 days after surgery. There were no significant differences in body weight, body temperature (36.5±0.5° C.), duration of surgery, or post-stroke mortality between cohorts. Each cohort contained an even distribution of mice from the matched strains or treatment groups.\nPurified human C3a peptide (Complement Technologies) was diluted in sterile phosphate buffered saline (PBS) to a concentration of 200 nM and a total of 20 μl (10 μl/nostril; corresponding to approximately 1.13 μg/kg body weight) of peptide solution or PBS was given intranasally to awake, hand-restrained mice held in a supine position. Solutions were administered through a pipette tip, drop-wise in 5 μl portions divided by 1 min intervals to allow for absorption. C3a or PBS was given every 24 hours on days 7 to 21 post-stroke for the short-term study or on days 7 to 28 post-stroke for the long-term study. Mice were assigned to C3a or PBS treatment using randomization stratified by body weight to avoid potential confounding effects of body weight on behavioural performance. The investigators carrying out behavioural studies and analysing data were blinded to treatment group. For the assessment of potential systemic anaphylactic response due to intranasal C3a inoculation, body temperature was monitored using a rectal temperature probe (Harvard Apparatus) inserted approximately 4 mm into the rectum of awake mice restrained by the scruff. Baseline temperature was taken before intranasal administration and 5, 15, 30, 45 and 75 min after C3a or PBS administration.\nFunctional impairment of mice treated intranasally with C3a or vehicle was assessed using a modified cylinder test and a grid walking task to closely evaluate forepaw function. Mice were tested once on each task one week before stroke induction to establish baseline performance. Next, they were tested on days 7, 14 and 21 (short-term study) or days 7, 14, 28, 42 and 56 (long-term study) post-stroke. […]"}}, "data": [{"substance": "C3a: Purified human C3a peptide (Complement Technologies), C3a receptor agonist, amino acid sequence SEQ ID NO: 1", "values": [{"measurement": "increase in density of synapsin I+ puncta", "setting": "[1]; contralesional somatosensory cortex, P=0.030", "result": 20, "unit": "%"}, {"measurement": "larger size of synapsin I+ puncta vs PBS-treated mice", "setting": "[1]; deep layers, P<0.0001", "result": 8.1, "unit": "%"}, {"measurement": "larger size of synapsin I+ puncta vs PBS-treated mice", "setting": "[1]; superficial layers, P=0.0004", "result": 9.7, "unit": "%"}, {"measurement": "right foot faults vs PBS-treated mice at days 14 and 56 post-stroke", "setting": "[2]; long-term study, C3a days 7-28, P=0.0097 and P=0.047, Mann-Whitney U test", "result": "significantly fewer right foot faults"}, {"measurement": "grid walking performance day 56 vs pre-stroke baseline", "setting": "[2]; long-term study, Dunn's test P=0.103", "result": "did not differ from pre-stroke baseline levels"}, {"measurement": "foot faults day 14 vs day 7 post-stroke (first week of treatment)", "setting": "[2]; long-term study, P=0.041 Dunn's test, P=0.039 Wilcoxon test", "result": "significant reduction in foot faults"}, {"measurement": "right paw foot faults, days 14 and 21 vs day 7", "setting": "[2]; short-term study, C3a days 7-21, P=0.0545 and P=0.0839, Dunnett's test", "result": "tendency toward reduced number of right paw foot faults"}, {"measurement": "grid walking performance vs baseline at all time points after stroke", "setting": "[2]; short-term study, P<0.001, both groups", "result": "significant impairment with respect to the baseline performance"}]}]}
